This note sets out measurements from patent US7723368B2, “Amino-5-[4-(difluoromethoxy)phenyl]-5-phenylimidazolone compounds for the inhibition of beta-secretase” (Wyeth LLC, priority 2007, dated 2010).

Chain of human BACE1 (P56817 46-501): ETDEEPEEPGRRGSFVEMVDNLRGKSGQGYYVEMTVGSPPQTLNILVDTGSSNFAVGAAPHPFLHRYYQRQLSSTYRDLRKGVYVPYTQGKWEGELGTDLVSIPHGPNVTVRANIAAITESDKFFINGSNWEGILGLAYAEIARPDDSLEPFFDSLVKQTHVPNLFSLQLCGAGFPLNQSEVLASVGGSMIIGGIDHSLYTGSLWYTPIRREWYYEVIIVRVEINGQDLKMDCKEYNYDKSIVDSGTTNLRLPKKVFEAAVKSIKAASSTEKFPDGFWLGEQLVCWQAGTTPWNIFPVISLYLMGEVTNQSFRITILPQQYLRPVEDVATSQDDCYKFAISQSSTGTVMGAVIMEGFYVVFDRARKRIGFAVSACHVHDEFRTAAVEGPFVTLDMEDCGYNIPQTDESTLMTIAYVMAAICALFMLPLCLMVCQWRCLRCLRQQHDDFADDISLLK

The experiment addresses human BACE1 (Homo sapiens, UniProt P56817). The experiment is described as follows: BACE1 fluorescent kinetic assay (cleavage of peptide substrate WABC-6). It counts as biochemical. As to conditions: Activity Table, Examples 1-108; 10 nM enzyme, 25 μM substrate WABC-6, pH 4.5, room temperature. Here is the method: Evaluation of BACE1 Binding Affinity of Test Compounds
Fluorescent Kinetic Assays
Dilution and mixing steps: total reaction volume: 100 μL
100 μM substrate dilution in 1×PBS was prepared, and
Fluorescence Readings: Readings at λex 320 nm and λem 420 nm are taken every 40 sec for 30 min at room temperature and the linear slope for substrate cleavage rate (vi) determined.
Consider `C=CCCOc1cccc(C2(c3ccc(OC(F)F)cc3)N=C(N)N(C)C2=O)c1` (stereo not shown) [Example 8, 2-amino-5-[3-(but-3-en-1-yloxy)phenyl]-5-[4-(difluoromethoxy)-phenyl]-3-methyl-3,5-dihydro-4H-imidazol-4-one], for which the half-inhibitory concentration (IC50) is less than 100 nM.
On to `C=CCCOc1cc(C2(c3ccc(OC(F)F)cc3)N=C(N)N(C)C2=O)ccc1F` (stereo not shown) [Example 9, 2-amino-5-[3-(but-3-en-1-yloxy)-4-fluorophenyl]-5-[4-(difluoromethoxy)phenyl]-3-methyl-3,5-dihydro-4H-imidazol-4-one], for which the IC50 was less than 100 nM.
To `C=CCCOc1cccc([C@@]2(c3ccc(OC(F)F)cc3)N=C(N)N(C)C2=O)c1` [Example 10A, (5R)-2-amino-5-[3-(but-3-en-1-yloxy)phenyl]-5-[4-(difluoromethoxy)phenyl]-3-methyl-3,5-dihydro-4H-imidazol-4-one] belongs less than 100 nM.
Turning to `C=CCCOc1cccc([C@]2(c3ccc(OC(F)F)cc3)N=C(N)N(C)C2=O)c1` [Example 10B, (5S)-2-amino-5-[3-(but-3-en-1-yloxy)phenyl]-5-[4-(difluoromethoxy)phenyl]-3-methyl-3,5-dihydro-4H-imidazol-4-one], the IC50 lay within 110 to 1000 nM.
To `C=CCCCOc1cccc([C@@]2(c3ccc(OC(F)F)cc3)N=C(N)N(C)C2=O)c1` [Example 10C, (R)-2-amino-4-(4-(difluoromethoxy)phenyl)-1-methyl-4-(3-(pent-4-enyloxy)phenyl)-1H-imidazol-5(4H)-one] belongs less than 100 nM.
As for `C=CC[C@@H](C)Oc1cccc([C@@]2(c3ccc(OC(F)F)cc3)N=C(N)N(C)C2=O)c1` [Example 10D, (R)-2-amino-4-(4-(difluoromethoxy)phenyl)-1-methyl-4-(3-((R)-pent-4-en-2-yloxy)phenyl)-1H-imidazol-5(4H)-one], the figure is less than 100 nM; as for `C=CC[C@H](C)Oc1cccc([C@@]2(c3ccc(OC(F)F)cc3)N=C(N)N(C)C2=O)c1` [Example 10E, (R)-2-amino-4-(4-(difluoromethoxy)phenyl)-1-methyl-4-(3-((S)-pent-4-en-2-yloxy)phenyl)-1H-imidazol-5(4H)-one], 110 to 1000 nM.
For `C=CC(C)COc1cccc([C@@]2(c3ccc(OC(F)F)cc3)N=C(N)N(C)C2=O)c1` (stereo partly drawn) [Example 10F, (4R)-2-amino-4-(4-(difluoromethoxy)phenyl)-1-methyl-4-(3-(2-methylbut-3-enyloxy)phenyl)-1H-imidazol-5(4H)-one], the IC50 was less than 100 nM.
The compound `C=C(C)CCOc1cccc([C@@]2(c3ccc(OC(F)F)cc3)N=C(N)N(C)C2=O)c1` [Example 10G, (R)-2-amino-4-(4-(difluoromethoxy)phenyl)-1-methyl-4-(3-(3-methylbut-3-enyloxy)phenyl)-1H-imidazol-5(4H)-one] had an IC50 of less than 100 nM.
As for `C=CCOc1cccc([C@@]2(c3ccc(OC(F)F)cc3)N=C(N)N(C)C2=O)c1` [Example 10H, (R)-4-(3-(allyloxy)phenyl)-2-amino-4-(4-(difluoromethoxy)phenyl)-1-methyl-1H-imidazol-5(4H)-one], the figure is less than 100 nM; as for `CN1C(=O)[C@@](c2ccc(OC(F)F)cc2)(c2cccc(CCCCC#N)c2)N=C1N` [Example 11A, 5-(3-{(4R)-2-amino-4-[4-(difluoromethoxy)phenyl]-1-methyl-5-oxo-4,5-dihydro-1H-imidazol-4-yl}phenyl)pentanenitrile], less than 100 nM.
As for `CN1C(=O)[C@](c2ccc(OC(F)F)cc2)(c2cccc(CCCCC#N)c2)N=C1N` [Example 11B, 5-(3-{(4S)-2-amino-4-[4-(difluoromethoxy)phenyl]-1-methyl-5-oxo-4,5-dihydro-1H-imidazol-4-yl}phenyl)pentanenitrile], the figure is greater than 1000 nM.
As for `CN1C(=O)C(c2ccc(OC(F)F)cc2)(c2cccc(C#CCCCF)c2)N=C1N` (stereo not shown) [Example 19D, 2-amino-5-[4-(difluoromethoxy)phenyl]-5-[3-(5-fluoropent-1-yn-1-yl)phenyl]-3-methyl-3,5-dihydro-4H-imidazol-4-one], the figure is less than 100 nM; as for `CN1C(=O)[C@@](c2ccc(OC(F)F)cc2)(c2cccc(C#CCCCF)c2)N=C1N` [Example 19E, (5R)-2-amino-5-[4-(difluoromethoxy)phenyl]-5-[3-(5-fluoropent-1-yn-1-yl)phenyl]-3-methyl-3,5-dihydro-4H-imidazol-4-one], less than 100 nM; as for `CN1C(=O)[C@](c2ccc(OC(F)F)cc2)(c2cccc(C#CCCCF)c2)N=C1N` [Example 19F, (5S)-2-amino-5-[4-(difluoromethoxy)phenyl]-5-[3-(5-fluoropent-1-yn-1-yl)phenyl]-3-methyl-3,5-dihydro-4H-imidazol-4-one], greater than 1000 nM.
`CN1C(=O)C(c2ccc(OC(F)F)cc2)(c2ccc(F)c(C#CCCCCl)c2)N=C1N` (stereo not shown) [Example 20A, 2-amino-5-[3-(5-chloropent-1-yn-1-yl)-4-fluorophenyl]-5-[4-(difluoromethoxy)phenyl]-3-methyl-3,5-dihydro-4H-imidazol-4-one]: the concentration for half-maximal inhibition (IC50) is less than 100 nM.
Regarding `CN1C(=O)C(c2ccc(OC(F)F)cc2)(c2cccc(C#CCCCCl)c2)N=C1N` (stereo not shown) [Example 20B, 2-amino-5-[3-(5-chloropent-1-yn-1-yl)-phenyl]-5-[4-(difluoromethoxy)phenyl]-3-methyl-3,5-dihydro-4H-imidazol-4-one], the half-inhibitory concentration (IC50) was less than 100 nM.
As for `CCC(=O)Nc1cccc(C2(c3ccc(OC(F)F)cc3)N=C(N)N(C)C2=O)c1` (stereo not shown) [Example 21], the IC50 lay within 110 to 1000 nM.
As for `CCCC(=O)Nc1cccc(C2(c3ccc(OC(F)F)cc3)N=C(N)N(C)C2=O)c1` (stereo not shown) [Example 22], the figure is 110 to 1000 nM; as for `CCCCC(=O)Nc1cccc(C2(c3ccc(OC(F)F)cc3)N=C(N)N(C)C2=O)c1` (stereo not shown) [Example 23], 110 to 1000 nM; as for `CN1C(=O)C(c2ccc(OC(F)F)cc2)(c2cccc(NC(=O)CCCl)c2)N=C1N` (stereo not shown) [Example 24], 110 to 1000 nM.
As for `CN1C(=O)C(c2ccc(OC(F)F)cc2)(c2cccc(NC(=O)C(F)(F)F)c2)N=C1N` (stereo not shown) [Example 25], the figure is less than 100 nM; as for `CC(C)CC(=O)Nc1cccc(C2(c3ccc(OC(F)F)cc3)N=C(N)N(C)C2=O)c1` (stereo not shown) [Example 26], less than 100 nM; as for `CC(C)C(=O)Nc1cccc(C2(c3ccc(OC(F)F)cc3)N=C(N)N(C)C2=O)c1` (stereo not shown) [Example 27], 110 to 1000 nM.
Consider `CN1C(=O)C(c2ccc(OC(F)F)cc2)(c2cccc(NC(=O)C3CC3)c2)N=C1N` (stereo not shown) [Example 28], for which the 50% inhibitory concentration (IC50) lay in the range of 110 to 1000 nM.
As for `CN1C(=O)C(c2ccc(OC(F)F)cc2)(c2cccc(NC(=O)C3CCC3)c2)N=C1N` (stereo not shown) [Example 29], the figure is 110 to 1000 nM; as for `CC=CC(=O)Nc1cccc(C2(c3ccc(OC(F)F)cc3)N=C(N)N(C)C2=O)c1` (stereo not shown) [Example 30], 110 to 1000 nM.
In the case of `CC(C)=CC(=O)Nc1cccc(C2(c3ccc(OC(F)F)cc3)N=C(N)N(C)C2=O)c1` (stereo not shown) [Example 31], the 50% inhibitory concentration (IC50) is greater than 1000 nM.
Take `CN1C(=O)C(c2ccc(OC(F)F)cc2)(c2cccc(NC(=O)C=Cc3ccccc3)c2)N=C1N` (stereo not shown) [Example 32]: the 50% inhibitory concentration (IC50) lay within 110 to 1000 nM.
As for `CN1C(=O)C(c2ccc(OC(F)F)cc2)(c2cccc(NC(=O)c3ccco3)c2)N=C1N` (stereo not shown) [Example 33], the figure is less than 100 nM; as for `CN1C(=O)C(c2ccc(OC(F)F)cc2)(c2cccc(NC(=O)COCc3ccccc3)c2)N=C1N` (stereo not shown) [Example 34], 110 to 1000 nM; as for `CN1C(=O)C(c2ccc(OC(F)F)cc2)(c2cccc(NC(=O)c3ccccc3)c2)N=C1N` (stereo not shown) [Example 35], 110 to 1000 nM.
In the case of `CN1C(=O)C(c2ccc(OC(F)F)cc2)(c2cccc(NC(=O)C(Cl)(Cl)Cl)c2)N=C1N` (stereo not shown) [Example 36], the IC50 was less than 100 nM.
Compound `CN1C(=O)C(c2ccc(OC(F)F)cc2)(c2cccc(NC(=O)c3sccc3Br)c2)N=C1N` (stereo not shown) [Example 39] yielded an IC50 of less than 100 nM.
As for `CN1C(=O)C(c2ccc(OC(F)F)cc2)(c2cccc(NC(=O)c3coc4ccccc34)c2)N=C1N` (stereo not shown) [Example 40], the figure is less than 100 nM; as for `CN1C(=O)C(c2ccc(OC(F)F)cc2)(c2cccc(NC(=O)c3cccs3)c2)N=C1N` (stereo not shown) [Example 42], 110 to 1000 nM; as for `CCCNc1cccc(C2(c3ccc(OC(F)F)cc3)N=C(N)N(C)C2=O)c1` (stereo not shown) [Example 43], less than 100 nM.
`CCCCNc1cccc(C2(c3ccc(OC(F)F)cc3)N=C(N)N(C)C2=O)c1` (stereo not shown) [Example 44] gave an IC50 of less than 100 nM.
In the case of `CC(C)CNc1cccc(C2(c3ccc(OC(F)F)cc3)N=C(N)N(C)C2=O)c1` (stereo not shown) [Example 45], the IC50 is less than 100 nM.
In turn, `CC(C)Nc1cccc(C2(c3ccc(OC(F)F)cc3)N=C(N)N(C)C2=O)c1` (stereo not shown) [Example 46] displayed an IC50 of 110 to 1000 nM.
As for `CN1C(=O)C(c2ccc(OC(F)F)cc2)(c2cccc(NC3CCCC3)c2)N=C1N` (stereo not shown) [Example 47], the figure is less than 100 nM; as for `CN1C(=O)C(c2ccc(OC(F)F)cc2)(c2cccc(NC3CCCCC3)c2)N=C1N` (stereo not shown) [Example 48], 110 to 1000 nM; as for `CN1C(=O)C(c2ccc(OC(F)F)cc2)(c2cccc(NC3CCC3)c2)N=C1N` (stereo not shown) [Example 50], 110 to 1000 nM.
To `CN1C(=O)C(c2ccc(OC(F)F)cc2)(c2cccc(NCc3ccco3)c2)N=C1N` (stereo not shown) [Example 51] belongs less than 100 nM; to `CN1C(=O)C(c2ccc(OC(F)F)cc2)(c2cccc(C3CC(=CCO)C3)c2)N=C1N` (stereo not shown) [Example 56, 2-amino-5-[4-(difluoromethoxy)phenyl]-5-{3-[3-(2-hydroxyethylidene)cyclobutyl]phenyl}-3-methyl-3,5-dihydro-4H-imidazol-4-one], greater than 1000 nM; to `CN1C(=O)C(c2ccc(OC(F)F)cc2)(c2cccc(C3CC(CCF)C3)c2)N=C1N` (stereo not shown) [Example 58, 2-amino-5-[4-(difluoromethoxy)phenyl]-5-{3-[3-(2-fluoroethyl)cyclobutyl]phenyl}-3-methyl-3,5-dihydro-4H-imidazol-4-one], 110 to 1000 nM.
